Data taken from ChEMBL document CHEMBL1150748, “Isolation of the antimicrobial alkaloid stemmadenine from Iraqi Rhazya stricta” (1988).
Converted amounts (≈) assume the structure as drawn.

What follows are molecules tested on Candida albicans (assay: Antimicrobial activity against Candida albicans ATCC 10231).
Assay type: functional
With CC(=O)O.CC(=O)O.NC(=N\CCCCCC/N=C(N)/N=C(\N)Nc1ccc(Cl)cc1)/N=C(\N)Nc1ccc(Cl)cc1 [CHLORHEXIDINE DIACETATE] the MIC was 4.5 µg/mL.
CCCCCCCCCCCCC[N+](C)(C)Cc1ccccc1.[Cl-] [BENZALKONIUM CHLORIDE] gave an MIC of 1.8 µg/mL.
In the case of THIMEROSAL, the MIC is reported as 0.1 µg/mL.
Work on C/C=C1/CN2CCc3c([nH]c4ccccc34)[C@@](CO)(C(=O)OC)[C@@H]1CC2 [STEMMADENINE] yielded an MIC of 37.5 µg/mL (≈ 106 µM).

Each molecule was assayed on Staphylococcus aureus (assay: Antimicrobial activity against Staphylococcus aureus ATCC 6538).
Assay type: functional
With CC(=O)O.CC(=O)O.NC(=N\CCCCCC/N=C(N)/N=C(\N)Nc1ccc(Cl)cc1)/N=C(\N)Nc1ccc(Cl)cc1 [CHLORHEXIDINE DIACETATE] the MIC was 0.2 µg/mL.
Molecule CCCCCCCCCCCCC[N+](C)(C)Cc1ccccc1.[Cl-] [BENZALKONIUM CHLORIDE] has an MIC of 0.32 µg/mL.
THIMEROSAL showed an MIC of 0.2 µg/mL.
C/C=C1/CN2CCc3c([nH]c4ccccc34)[C@@](CO)(C(=O)OC)[C@@H]1CC2 [STEMMADENINE] gave an MIC of 5 µg/mL (≈ 14.1 µM).

The molecules below were run on Pseudomonas aeruginosa (assay: Antimicrobial activity against Pseudomonas aeruginosa ATCC 9027).
Assay type: functional
Work on CC(=O)O.CC(=O)O.NC(=N\CCCCCC/N=C(N)/N=C(\N)Nc1ccc(Cl)cc1)/N=C(\N)Nc1ccc(Cl)cc1 [CHLORHEXIDINE DIACETATE] yielded an MIC of 1.5 µg/mL.
CCCCCCCCCCCCC[N+](C)(C)Cc1ccccc1.[Cl-] [BENZALKONIUM CHLORIDE] showed an MIC of 8 µg/mL.
Work on THIMEROSAL yielded an MIC of 1.5 µg/mL.
In the case of C/C=C1/CN2CCc3c([nH]c4ccccc34)[C@@](CO)(C(=O)OC)[C@@H]1CC2 [STEMMADENINE], the MIC is reported as 7.5 µg/mL (≈ 21.2 µM).

These molecules were tested on Escherichia coli (assay: Antimicrobial activity against Escherichia coli ATCC 8739).
Assay type: functional
CC(=O)O.CC(=O)O.NC(=N\CCCCCC/N=C(N)/N=C(\N)Nc1ccc(Cl)cc1)/N=C(\N)Nc1ccc(Cl)cc1 [CHLORHEXIDINE DIACETATE] showed an MIC of 0.4 µg/mL.
With CCCCCCCCCCCCC[N+](C)(C)Cc1ccccc1.[Cl-] [BENZALKONIUM CHLORIDE] the MIC was 2.8 µg/mL.
With THIMEROSAL the MIC was 0.6 µg/mL.
C/C=C1/CN2CCc3c([nH]c4ccccc34)[C@@](CO)(C(=O)OC)[C@@H]1CC2 [STEMMADENINE] was tested, and the MIC was 1.25 µg/mL (≈ 3.53 µM).
